pKd: −log10 of the molar value.
Assays:
[1] = system: control plasmid lacking 5′ UTR; assay: In vitro translation assay, control lacking 5′ UTR; format: biochemical
Experimental: (§1) Luciferase assay. The effect of Synucleozid treatment on translation from various IRE containing transcripts was determined using luciferase reporter assay. SH-SY5Y cells stably expressing 5' UTR were treated with Synucleozid for 48 h, washed with PBS and lysed with Passive Lysis Buffer for 15 min at room temperature. Luciferase reporter activity in each lysate was monitored using the dual luciferase reporter assay system kit (Promega. Madison, Wis., USA) according to the manufacturer's instructions. Luminescence from firefly luciferase reaction was measured using a microplate luminometer (Wallac 1420, Perkin Elmer) at 485 nm excitation and 535 nm emission wavelengths. Firefly luciferase reaction was then quenched by adding Stop & Glo reagent, and the internal fluorescence from GFP measured at the same setting was used to normalize luciferase expression. Luciferase reporter activity was expressed as percent change compared to the respective vehicle-treated control cells. In vitro translation assay. The mRNA template for in vitro translational assays was transcribed from the pIRES-Luc-EGFP-puro and pCDH-α-syn-5'-UTR-Luc-EGFP-puro plasmids by using an in vitro transcription system (RiboMax, Promega) with forward primer: [NT] and reverse primer: [NT]. […] Translation proceeded at 30° C. for 90 min, and then luminescence was measured with a Biomek FLx800 plate reader (1.0 s integration time).

5′ UTR of SNCA mRNA = assay: In vitro translation assay (rabbit reticulocyte lysate), SNCA-5′-UTR-Luc mRNA; format: biochemical, human
Experimental: as §1

SNCA mRNA = assay: Polysome profiling; format: cell-based, human; conditions: 1 μM, 48 h
Experimental: Polysome profiling. Polysome profiling studies were completed similarly to previously described methods (9, 10). SH-SY5Y cells were treated with DMSO vehicle or Synucleozid (1 μM) at 50% confluency. After 48 h, 100 μg/mL (final concentration) cycloheximide (CHX) was added to dishes, and cells were incubated at 37° C. for 10 min. After two times washing with ice-cold 1×DPBS supplemented with 100 μg/mL CHX, cells were scraped with ice-cold 300 μL 1×DPBS supplemented with 100 μg/mL CHX. Three 100 mm dishes of cells were prepared and combined as one profiling sample. After centrifugation, cell pellets were lysed with 250 μL of ice-cold polysome extraction buffer [10 mM NaCl, 10 mM MgCl2, 10 mM Tris, pH 7.5, 1% Triton X-100, 1% sodium deoxycholate, 1 mM DTT supplemented with […] and 0.2 U/μL RNasin (Promega)]. The lysate was transferred to an ice-cold Eppendorf tube, gently vortexed and centrifuged for 15 min at 13,200 rpm, 4° C. The supernatant was layered onto 10 mL linear 10-50% sucrose gradients containing 20 mM HEPES (pH 7.4), 5 mM MgCl2, 100 mM KCl, […], and 100 µg/mL CHX. The sucrose gradients were centrifuged at 40,000 rpm for 2 h at 4° C. then fractionated using a fraction collector (Brandel Inc.). The absorbance of cytosolic RNA was recorded at 254 nm by an inline UV monitor. A 400 μL aliquot from each fraction was collected. Then, RNA extraction, cDNA synthesis and RT-qPCR were performed as described above.

[2] = target: RNA-1 (A bulge mutated to a base pair); assay: Competitive binding assay (2-AP), RNA-1
Experimental: EC50 was calculated from Eq. (1).

APP 5′ UTR = assay: Luciferase reporter assay, APP 5′ UTR, SH-SY5Y cells; format: cell-based, human
[3] = system: construct in which the SNCA 5′ UTR was absent; assay: Luciferase reporter assay, construct lacking SNCA 5′ UTR, SH-SY5Y cells; format: cell-based, human; conditions: cellular
Description: pIRES-Luc-EGFP-puro: The firefly luciferase open reading frame (ORF) was amplified with primers 1 and 2 using pmirGLO-dual-luciferase (Promega, E1330) as a template. The PCR product was then fused with linearized pIRES-EGFP-puro (Addgene plasmid #45567) digested with XhoI and SacI, placing the luciferase ORF upstream of the IRES sequence. pCDH-Luc-EGFP-puro: The firefly luciferase open reading frame (ORF) was amplified with primers 15 and 16 using pmirGLO-dual-luciferase (Promega, E1330) as a template. The PCR product was then fused with linearized pCDH-CB-IRES-copGFP-T2A-Puro digested with BamHI and NotI, placing the luciferase ORF upstream of IRES sequence. Luciferase assay. The effect of Synucleozid treatment on translation from various IRE containing transcripts was determined using luciferase reporter assay. […] Luciferase reporter activity in each lysate was monitored using the dual luciferase reporter assay system kit (Promega. Madison, Wis., USA) according to the manufacturer's instructions. Luminescence from firefly luciferase reaction was measured using a microplate luminometer (Wallac 1420, Perkin Elmer) at 485 nm excitation and 535 nm emission wavelengths. Firefly luciferase reaction was then quenched by adding Stop & Glo reagent, and the internal fluorescence from GFP measured at the same setting was used to normalize luciferase expression. […]

Structure (SMILES): N=C(N)c1ccc(Nc2ccc(-c3cc4ccc(C(=N)N)cc4[nH]3)cc2)cc1 [Synucleozid A]
- inhibitory effect on construct lacking SNCA 5′ UTR [1]: No inhibitory effect
- inhibition of luciferase expression in vitro, SNCA-5′-UTR-Luc (5′ UTR of SNCA mRNA): inhibited luciferase expression in a concentration-dependent manner
- association of ribosomes with a control RNA (SNCA mRNA): does not affect
- decrease of SNCA mRNA associated with active polysomes (SNCA mRNA; SH-SY5Y cells): ~20%
- SNCA mRNA associated with incomplete ribosomes (SNCA mRNA; fractions 1-5): increase
- pKd [2]: ~4.70
- reduction of avidity compared to the native IRE [2]: 10 fold
- effect on translation of luciferase fused to APP 5′ UTR (APP 5′ UTR): no effect
- inhibitory effect on luciferase construct lacking SNCA 5′ UTR [3]: No inhibitory effect

Reference: US20230054976A1, “METHODS FOR INHIBITION OF ALPHA-SYNUCLEIN mRNA USING SMALL MOLECULES” (The Scripps Research Institute, priority 2019, published 2023)
